Data taken from ChEMBL document CHEMBL1201862, “PubChem BioAssay data set” (2004).
Calls of active or inactive are those of the source.

Tests used:
Troponin, cardiac muscle = Troponin, cardiac muscle (Homo sapiens, UniProt P19429+P45379+P63316); test: Fluorescence-based biochemical high throughput dose response assay for activators of the calcium sensitivity of cardiac Regulated Thin Filaments (RTF). [Related pubchem assays (depositor defined):AID493008, AID493018, AID504382, AID504383]; assay type: protein-complex assay
BJ [1] = test: cytotoxicity toward BJ-TERT fibroblasts, dose response, cell-based, RAS-independent, luminescence (AID 1933); assay type: functional; conditions: Homo sapiens
Paired box protein Pax-8 = Paired box protein Pax-8 (Homo sapiens, UniProt Q06710); test: inhibitors of PAX8-driven TPO luciferase reporter, dose response, RMG-I cells, cherry-pick (AID 687027); assay type: functional, cell-based;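 note: luciferase reporter driven by Pax8 target thyroperoxidase promoter measured by SteadyGlo luminescence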
[2] = molecular target: T1, Replicative DNA helicase DnaB (Mycobacterium tuberculosis, UniProt P9WMR3); test: DnaB intein splicing inhibitors, dose response, biochemical, cell-free fluorescence (AID 449749); assay type: functional
T1 sequence (P9WMR3 whole entry): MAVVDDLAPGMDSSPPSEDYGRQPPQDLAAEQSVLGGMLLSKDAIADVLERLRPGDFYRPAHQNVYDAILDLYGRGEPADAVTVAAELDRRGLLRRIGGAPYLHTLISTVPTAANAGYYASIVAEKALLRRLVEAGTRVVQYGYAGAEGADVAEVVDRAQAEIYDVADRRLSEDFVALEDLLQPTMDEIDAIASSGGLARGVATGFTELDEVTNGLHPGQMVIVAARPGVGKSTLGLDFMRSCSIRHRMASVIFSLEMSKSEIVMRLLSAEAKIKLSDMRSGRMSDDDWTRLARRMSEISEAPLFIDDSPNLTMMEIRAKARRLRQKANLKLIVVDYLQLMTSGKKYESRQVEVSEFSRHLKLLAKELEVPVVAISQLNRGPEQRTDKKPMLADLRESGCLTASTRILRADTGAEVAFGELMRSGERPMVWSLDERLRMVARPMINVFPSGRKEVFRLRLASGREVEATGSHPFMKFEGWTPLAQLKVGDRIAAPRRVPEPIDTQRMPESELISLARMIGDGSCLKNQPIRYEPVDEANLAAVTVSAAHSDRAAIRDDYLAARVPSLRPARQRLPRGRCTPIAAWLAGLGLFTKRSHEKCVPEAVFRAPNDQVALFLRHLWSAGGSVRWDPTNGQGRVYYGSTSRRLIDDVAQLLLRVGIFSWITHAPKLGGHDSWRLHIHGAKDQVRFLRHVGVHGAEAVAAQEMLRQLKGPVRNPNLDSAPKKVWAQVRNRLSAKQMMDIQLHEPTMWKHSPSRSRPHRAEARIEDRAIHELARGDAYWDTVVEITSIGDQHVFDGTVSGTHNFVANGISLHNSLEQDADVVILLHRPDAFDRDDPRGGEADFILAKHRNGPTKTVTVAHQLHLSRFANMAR

BJ [3] = test: cytotoxicity toward BJ-TERT-LT-ST fibroblasts, dose response, cell-based, RAS-independent, luminescence (AID 1935); assay type: functional; conditions: Homo sapiens;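 note: BJ fibroblasts immortalized with TERT plus LT and ST oncogenes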
Protein RecA = molecular target: T2, Protein RecA (Mycobacterium tuberculosis, UniProt P9WHJ3); test: Fluorescence Cell-Free Homogeneous Dose Retest to Identify Inhibitors of RecA-Intein Splicing Activity. [Related pubchem assays (depositor defined):AID2097, AID2223, AID489010, AID492950]; assay type: functional
T2 sequence (P9WHJ3 whole entry): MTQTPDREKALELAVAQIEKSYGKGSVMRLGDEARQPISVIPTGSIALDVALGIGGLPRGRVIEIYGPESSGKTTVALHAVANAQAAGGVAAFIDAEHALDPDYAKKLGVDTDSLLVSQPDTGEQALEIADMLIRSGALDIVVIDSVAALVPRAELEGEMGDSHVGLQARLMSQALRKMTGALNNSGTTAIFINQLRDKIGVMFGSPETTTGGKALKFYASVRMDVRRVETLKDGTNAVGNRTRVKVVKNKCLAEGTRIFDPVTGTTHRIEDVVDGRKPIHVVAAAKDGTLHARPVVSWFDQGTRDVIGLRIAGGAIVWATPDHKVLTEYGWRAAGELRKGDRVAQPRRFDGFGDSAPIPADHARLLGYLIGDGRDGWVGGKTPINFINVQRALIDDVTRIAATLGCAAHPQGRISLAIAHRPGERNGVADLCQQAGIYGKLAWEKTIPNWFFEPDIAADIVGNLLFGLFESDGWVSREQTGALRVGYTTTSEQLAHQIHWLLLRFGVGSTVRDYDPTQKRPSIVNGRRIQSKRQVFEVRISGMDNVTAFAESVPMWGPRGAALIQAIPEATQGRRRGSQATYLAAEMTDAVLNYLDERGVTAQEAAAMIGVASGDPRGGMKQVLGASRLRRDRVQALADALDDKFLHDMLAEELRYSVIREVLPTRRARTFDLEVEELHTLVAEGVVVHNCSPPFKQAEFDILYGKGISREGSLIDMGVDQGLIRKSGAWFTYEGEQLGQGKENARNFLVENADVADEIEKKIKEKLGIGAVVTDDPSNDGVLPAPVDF

[4] = (§1) Late stage assay provider results from the probe development effort to identify inhibitors of GSTO1: luminescence-based biochemical dose response assay to determine cytotoxicity of inhibitor compounds. [Related pubchem assays (depositor defined):AID1515, AID1974, AID2175, AID2176, AID463081, AID463098, AID463101, AID463102, AID463110, AID463142] Panel member name: Assay 2: % Surviving cells, media plus FCS; assay type: toxicity, cell-based
[5] = non-specific cell cytotoxicity, dose response, cytotoxicity control for PAX8 inhibitor project, plate reader, dry powder samples (AID 743021); assay type: functional, cell-based
[6] = molecular target: T3, Microphthalmia-associated transcription factor (Homo sapiens, UniProt O75030); test: TRPM1 promoter luciferase signal decrease, dose response, MITF inhibitor project, cell-based, SK-MEL-5, cherry-picked, set 3 (AID 493073); assay type: functional
T3 sequence (O75030 whole entry): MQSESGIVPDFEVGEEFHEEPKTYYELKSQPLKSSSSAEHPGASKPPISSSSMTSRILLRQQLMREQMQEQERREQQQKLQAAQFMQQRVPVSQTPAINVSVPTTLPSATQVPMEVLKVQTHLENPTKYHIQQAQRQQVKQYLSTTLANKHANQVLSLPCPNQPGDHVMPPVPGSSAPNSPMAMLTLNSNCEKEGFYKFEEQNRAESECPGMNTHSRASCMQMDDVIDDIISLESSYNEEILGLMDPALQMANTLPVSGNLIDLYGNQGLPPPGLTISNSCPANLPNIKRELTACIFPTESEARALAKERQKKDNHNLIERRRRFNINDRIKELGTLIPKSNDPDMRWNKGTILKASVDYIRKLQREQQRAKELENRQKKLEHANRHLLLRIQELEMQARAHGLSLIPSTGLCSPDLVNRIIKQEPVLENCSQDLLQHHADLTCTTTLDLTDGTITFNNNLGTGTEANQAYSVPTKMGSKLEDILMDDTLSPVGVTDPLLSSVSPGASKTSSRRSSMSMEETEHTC

[7] = molecular target: Glutathione S-transferase omega-1 (Homo sapiens, UniProt P78417); test: GSTO1 inhibitor potency, recombinant enzyme, late-stage follow-up, biochemical, SE-Rh probe, in-gel fluorescence, powder samples (AID 463081); assay type: functional
BJ [8] = test: cells; assay type: functional, cell-based; conditions: Homo sapiens
[9] = cytotoxicity toward DRD oncogenic fibroblasts, dose response, cell-based, non-viral oncogenic, luminescence (AID 1934); assay type: functional; conditions: Homo sapiens
[10] = as §1, with “1:” for “2:”, “cells, serum-free” for “cells,”, “media” for “media plus FCS”; assay type: toxicity, cell-based
Coagulation factor XII [11] = molecular target: T4, Coagulation factor XII (Homo sapiens, UniProt P00748); test: Factor XIIa Dose Response Confirmation from Single Well HTS. [Related pubchem assays (depositor defined):AID701]; assay type: functional
T4 sequence (P00748 whole entry): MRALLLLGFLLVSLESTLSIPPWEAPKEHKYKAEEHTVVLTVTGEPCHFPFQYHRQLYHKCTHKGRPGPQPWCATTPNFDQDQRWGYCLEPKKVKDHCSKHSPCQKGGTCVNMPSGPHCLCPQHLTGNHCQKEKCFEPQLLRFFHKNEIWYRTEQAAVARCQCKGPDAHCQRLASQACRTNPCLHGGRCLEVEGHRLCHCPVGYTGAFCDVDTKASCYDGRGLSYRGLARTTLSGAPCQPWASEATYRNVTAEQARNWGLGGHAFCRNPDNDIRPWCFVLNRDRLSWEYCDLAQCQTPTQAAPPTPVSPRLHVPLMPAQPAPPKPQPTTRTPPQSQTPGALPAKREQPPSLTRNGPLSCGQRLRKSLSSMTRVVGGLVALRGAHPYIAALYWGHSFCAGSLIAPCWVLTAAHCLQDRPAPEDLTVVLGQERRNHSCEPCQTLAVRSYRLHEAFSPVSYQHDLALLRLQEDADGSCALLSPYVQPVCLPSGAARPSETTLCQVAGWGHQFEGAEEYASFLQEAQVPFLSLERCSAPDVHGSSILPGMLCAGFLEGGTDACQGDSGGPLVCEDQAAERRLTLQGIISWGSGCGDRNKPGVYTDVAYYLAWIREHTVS

[12] = molecular target: T5, Corticotropin-releasing factor receptor 2/Corticotropin-releasing factor-binding protein (Homo sapiens, UniProt P24387+Q13324); test: activators of CRF receptor 2 with binding protein – uHTS hits, confirmation (AID 602473); assay type: functional; conditions: read-out: EC50_Mean
T5 sequence (Q13324 whole entry): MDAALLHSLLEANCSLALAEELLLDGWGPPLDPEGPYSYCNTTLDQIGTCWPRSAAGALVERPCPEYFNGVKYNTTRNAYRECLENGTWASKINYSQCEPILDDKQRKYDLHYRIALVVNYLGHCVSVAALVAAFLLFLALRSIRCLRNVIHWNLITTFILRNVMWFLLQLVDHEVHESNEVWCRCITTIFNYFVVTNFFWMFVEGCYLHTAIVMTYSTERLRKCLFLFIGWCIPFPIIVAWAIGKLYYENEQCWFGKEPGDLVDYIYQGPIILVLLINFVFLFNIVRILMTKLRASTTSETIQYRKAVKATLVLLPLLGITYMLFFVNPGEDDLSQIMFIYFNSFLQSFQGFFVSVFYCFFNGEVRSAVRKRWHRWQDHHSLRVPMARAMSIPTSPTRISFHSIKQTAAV
T5 sequence (P24387 whole entry): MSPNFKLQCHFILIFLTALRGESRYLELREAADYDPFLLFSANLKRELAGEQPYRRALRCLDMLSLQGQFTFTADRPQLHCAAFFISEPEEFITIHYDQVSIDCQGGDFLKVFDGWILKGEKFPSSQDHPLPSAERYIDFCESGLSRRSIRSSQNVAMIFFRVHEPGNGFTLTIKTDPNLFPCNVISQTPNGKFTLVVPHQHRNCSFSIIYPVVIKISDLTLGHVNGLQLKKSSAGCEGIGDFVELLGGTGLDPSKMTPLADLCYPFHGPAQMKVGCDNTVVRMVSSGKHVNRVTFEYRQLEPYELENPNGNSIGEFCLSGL

Coagulation factor XII [13] = molecular target: T4, Coagulation factor XII; test: FXIIa inhibitor potency, concentration-response, biochemical (AID 716); assay type: functional
[14] = molecular target: Delta-type opioid receptor (Homo sapiens, UniProt P41143); test: SAR Analysis of Antagonists of the DOR Receptor using an Image-Based Assay - Set 3. [Related pubchem assays (depositor defined):AID1777, AID1785]; assay type: functional;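 note: U2OS cells expressing DOR1 and beta-arrestin GFP stimulated with 100 nM SNC80; imaging of GFP-tagged beta-arrestin moving into spots after receptor activation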
[15] = molecular target: T6, Kappa-type opioid receptor (Homo sapiens, UniProt P41145); test: SAR analysis of Antagonists of the Kappa Opioid Receptor (KOR) using an Image-Based Assay - Set 3. [Related pubchem assays (depositor defined):AID1777, AID1785]; assay type: functional
[16] = molecular target: T6, Kappa-type opioid receptor; test: SAR analysis of small molecule antagonists of the kappa opioid receptor via a luminescent beta-arrestin assay - Set 3. [Related pubchem assays (depositor defined):AID1777, AID1778, AID1785, AID1786, AID1966, AID2133, AID2136, AID2285, AID2495]; assay type: functional
Mu-type opioid receptor = Mu-type opioid receptor (Homo sapiens, UniProt P35372); test: SAR Analysis of Antagonists of the MOR Receptor using an Image-Based Assay - Set 3. [Related pubchem assays (depositor defined):AID1777, AID1785, AID1786, AID1966, AID2133, AID2136, AID2284, AID2285, AID2420]; assay type: functional

O=C(COc1ccccc1F)NC1CC1
EC50 (Troponin, cardiac muscle): > 71.5 µM (inactive)

COc1ccc(N(C(=O)CCl)C(C(=O)NC2CCCCC2)c2cccnc2)cc1 (stereo not given)
EC50 (BJ [1]): 1.01 µM (active)
AC50 (Paired box protein Pax-8): 1.3 µM (active)
AC50 [2]: 7.67 µM (active)
EC50 (BJ [3]): 7.37 µM (inconclusive)
EC50 (Protein RecA): 0.619 µM (active)
CC50 [4]: > 35 µM (inactive)
AC50 [5]: 3.18 µM (active)
AC50 [6]: 5.87 µM (active)
IC50 [7]: 0.067 µM (active)
EC50 (BJ [8]): 4.5 µM (active)
EC50 [9]: 2.63 µM (inconclusive)
CC50 [10]: > 45 µM (inactive)

CCn1c(C)c(C(C)=O)c(N2CCN(c3ccccc3)CC2)nc1=S
IC50 (Coagulation factor XII [11]): > 50 µM (inactive)
EC50 [12]: > 53 µM (inactive)

NC(=O)Cn1cnc(-c2ccccc2)c1
IC50 (Coagulation factor XII [13]): > 50 µM (inactive)

O=C(Cn1c(=O)c2cccn2c2cccnc21)NCCCN1CCOCC1
IC50 [14]: > 32 µM (inactive)
IC50 [15]: > 32 µM (inactive)
IC50 [16]: > 20 µM (inactive)
IC50 (Mu-type opioid receptor): > 32 µM (inactive)
